Experimental findings from patent US20240336611A1 (Insilico Medicine IP Limited, priority 2021, published 2024) are described below.

T1 sequence (Q9UKE5 1-367): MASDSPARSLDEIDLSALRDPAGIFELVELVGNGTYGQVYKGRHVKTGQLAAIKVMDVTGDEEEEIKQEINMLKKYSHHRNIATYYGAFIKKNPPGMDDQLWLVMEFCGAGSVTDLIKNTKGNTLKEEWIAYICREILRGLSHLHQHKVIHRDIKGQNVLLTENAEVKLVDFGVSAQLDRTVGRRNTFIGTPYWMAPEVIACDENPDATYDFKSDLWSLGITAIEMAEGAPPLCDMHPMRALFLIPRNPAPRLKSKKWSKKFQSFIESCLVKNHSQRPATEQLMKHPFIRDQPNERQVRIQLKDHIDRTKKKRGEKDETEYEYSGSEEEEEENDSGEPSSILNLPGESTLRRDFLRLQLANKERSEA

The assay concerns the target T1, TNIK kinase [amino acid sequence (1-367), Invitrogen] (Homo sapiens, UniProt Q9UKE5).
T1 construct: purchased Invitrogen
Briefly: TNIK kinase inhibition assay (Z-lyte FRET-peptide). The assay is classed as biochemical. To be noted: 0.625 nM TNIK kinase, 2 μM Ser/Thr 7 peptide, 64 μM ATP, one hour at room temperature. How it is done: Z-lyte assay kit was purchased from Invitrogen. A site-specific protease recognizes and cleaves non-phosphorylated FRET-peptides. Phosphorylation of FRET-peptides suppresses cleavage by protease and will maintain FRET from donor to acceptor.
5 μl of Development Reagent A solution was then added to cleave non-phosphorylated peptide with a dilution 1:65000 in Development Buffer B. The assay plate was incubated at room temperature for another one hour and then read in the Envision plate reader (PerkinElmer).
As for `[2H]C(C)(C)n1cnc(-c2ccc(F)cc2)c1-c1nc(C(=O)Nc2ccc(N3CCN(CC)CC3)cc2)c[nH]1` [Compound 135, 2-[3-(1-deuterio-1-methyl-ethyl)-5-(4-fluorophenyl)imidazol-4-yl]-N-[4-(4-ethylpiperazin-1-yl)phenyl]-1H-imidazole-4-carboxamide], the IC50 fell in the range of 12 to 150 nM. With `CC(C)n1cnc(-c2ccc(F)cc2)c1-c1nc(C(=O)Nc2ccc(N3CCN(C)CC3)nc2)c[nH]1` [Compound 22, 5′-(4-fluorophenyl)-3′-isopropyl-N-(6-(4-methylpiperazin-1-yl)pyridin-3-yl)-1H,3′H-[2,4′-biimidazole]-4-carboxamide], the IC50 is 12 to 150 nM. In turn, `CC(C)c1noc(-c2ccc(F)cc2)c1-c1nc(C(=O)Nc2ccc(C3CN(C)C3)cc2F)cs1` [Compound 87, N-(2-fluoro-4-(1-methylazetidin-3-yl)phenyl)-2-(5-(4-fluorophenyl)-3-isopropylisoxazol-4-yl)thiazole-4-carboxamide] displayed an IC50 of 1 to 12 nM.

`CC(C)c1onc(-c2ccc(F)cc2)c1-c1nc(C(=O)Nc2ccc(C3CN(C)C3)cn2)co1` [Compound 107, 2-(3-(4-fluorophenyl)-5-isopropylisoxazol-4-yl)-N-(5-(1-methylazetidin-3-yl)pyridin-2-yl)oxazole-4-carboxamide]: the IC50 is 12 to 150 nM. Under `O=C(Nc1ccc(N2CCOCC2)cn1)c1coc(-c2c(-c3ccc(F)cc3)ncn2C2COC2)n1` [Compound 71, 2-(4-(4-fluorophenyl)-1-(oxetan-3-yl)-1H-imidazol-5-yl)-N-(5-morpholinopyridin-2-yl)oxazole-4-carboxamide] stands > 150 nM.

`O=C(Nc1ccc(C2COC2)cn1)c1coc(-c2c(-c3ccc(F)cc3)ncn2C2COC2)n1` [Compound 82, 2-(4-(4-fluorophenyl)-1-(oxetan-3-yl)-1H-imidazol-5-yl)-N-(5-(oxetan-3-yl)pyridin-2-yl)oxazole-4-carboxamide] displayed an IC50 of 12 to 150 nM. As for `CC(C)n1cnc(-c2ccc(F)cc2)c1-c1csc(C(=O)Nc2ccc(N3CCN(C)CC3)cc2)n1` [Compound 4, 4-(4-(4-fluorophenyl)-1-isopropyl-1H-imidazol-5-yl)-N-(4-(4-methylpiperazin-1-yl)phenyl)thiazole-2-carboxamide], the figure is 1 to 12 nM; as for `CC(C)c1onc(-c2ccc(F)cc2)c1-c1nc(C(=O)Nc2ccc(N3CC4CC(C3)N4C)cc2F)co1` [Compound 105, N-(2-fluoro-4-(6-methyl-3,6-diazabicyclo[3.1.1]heptan-3-yl)phenyl)-2-(3-(4-fluorophenyl)-5-isopropylisoxazol-4-yl)oxazole-4-carboxamide], 12 to 150 nM; as for `O=C(Nc1ccc(C2COC2)cc1F)c1coc(-c2c(-c3ccc(F)cc3)ncn2C2COC2)n1` [Compound 80, N-(2-fluoro-4-(oxetan-3-yl)phenyl)-2-(4-(4-fluorophenyl)-1-(oxetan-3-yl)-1H-imidazol-5-yl)oxazole-4-carboxamide], 12 to 150 nM. Compound `CN1CCN(c2ccc(NC(=O)c3csc(-c4c(-c5ccc(F)cc5)nc5n4CCOC5)n3)nc2)CC1` [Compound 29, 2-(2-(4-fluorophenyl)-6,8-dihydro-5H-imidazo[2,1-c][1,4]oxazin-3-yl)-N-(5-(4-methylpiperazin-1-yl)pyridin-2-yl)thiazole-4-carboxamide] came in with an IC50 of 1 to 12 nM. As for `CC(C)n1cnc(-c2ccc(F)cc2)c1-c1nc(C(=O)Nc2ccc(C3CN(C)C3)cc2F)co1` [Compound 101, N-(2-fluoro-4-(1-methylazetidin-3-yl)phenyl)-2-(4-(4-fluorophenyl)-1-isopropyl-1H-imidazol-5-yl)oxazole-4-carboxamide], the figure is 1 to 12 nM; as for `CC(C)c1onc(-c2ccc(F)cc2)c1-c1nc(C(=O)Nc2ccc(N3CC4CC(C3)N4C)cn2)co1` [Compound 104, 2-(3-(4-fluorophenyl)-5-isopropylisoxazol-4-yl)-N-(5-(6-methyl-3,6-diazabicyclo[3.1.1]heptan-3-yl)pyridin-2-yl)oxazole-4-carboxamide], 12 to 150 nM.

Usually IC50 stands for the midpoint of a concentration-inhibition curve. Read a low IC50 as higher potency.
